# Test results from patent US8759499B2, “Lipids for transfection of Eukaryotic cells” (Molecular Transfer, Inc., priority 2005, dated 2014).
# Ends that are not written are not given here.
# System: CHO-K1, NIH3T3, A549, Cos-7 and BE(2)C
# Assay: Transfection with β-galactosidase reporter plasmid pCMV•SPORT-β-gal, "before" and "after" peptide protocols, β-gal activity (ONPG, OD 405)
# Format: cell-based
# Settings: FIG. 1-5
# Method: Transfection of CHO-K1, NIH3T3, A549, Cos-7 and BE(2)C with β-galactosidase reporter plasmid pCMV•SPORT-β-gal was carried out as follows:
# Cells were plated in a 96-well plates with 100 μl of media containing 10% fetal calf serum the day before transfection such that a desired confluency (70%-95%) was achieved. The following day a transfection agent that includes a liposomal composition of the lipid DMTS (Dimyrstyl-tetrahydroxy-spermine) and DOPE (2:1 DMTS:DOPE) and DNA were mixed in Opti-MEM to form DNA/lipid complexes. Complexes were formed by adding various amounts of lipids (0.1 to 0.35 μl) to 100 μl of Opti-MEM. DNA (100 ng) was added to 100 μl Opti-MEM. The DNA and lipid solutions were then mixed to form DNA lipid complexes. The complexes were incubated for at least 15 minutes after which added to the DNA lipid complexes, was 20 μl of various amounts of a peptide having the sequence of a Prototypical Avian reovirus fusogenic peptide provided herein, as follows:
# and incubated for 15 minutes to form a DNA/lipid/peptide complex. […] Total activity was determined by reading the OD at 405 using Bio-Rad Benchmark Microplate Spectrophotometer. […]
# were added to the DNA mixture and incubated for 15 minutes. […] Total activity was determined by reading the OD at 405 using Bio-Rad Benchmark Microplate Spectrophotometer.
sequence,measurement,setting,value
"RMPPGSCNGATAVFGNVHKKKKKKKKKKKKKKKK [peptide, Prototypical Avian reovirus fusogenic peptide with 16 lysine residues]",amount of lipid required to enhance transfection,"DMTS:DOPE 2:1 liposomes plus peptide, before or after protocol",reduced
same,effect of adding the peptide on transfection,"DMTS:DOPE 2:1 liposomes, peptide added to DNA before lipid, or to DNA/lipid complex",enhancement of transfection
